Reference: patent publication US3954793A, “1-(2-Propynyl)-1 H-indazole compounds” (priority 1973, dated 1976)

Key:
[1] = tested on: IN/WHO strain house flies; assay: topical application, percent kill after 24 hours, susceptible IN/WHO strain; assay type: in vivo, female); conditions: for percent kill after 24 hours, synergist alone (GS 13005 part of Table XXXI): GS 13005 0, synergist 1 μg/fly; for percent kill after 24 hours, with GS 13005: GS 13005 0.10 + synergist 0.50 μg/fly; for percent kill after 24 hours, with Mobam: Mobam 0.20 + synergist 1 μg/fly; for percent kill after 24 hours, synergist alone: insecticide 0, synergist 1 μg/fly
Protocol: (§1) In Table IX, and in the tables following it, the doses of topically applied insecticides and of synergists unless otherwise noted are expressed as micrograms per fly (μg/fly).
(§2) The synergistic effect of O-(2-propynyl) oximes with mobam was determined from topical application tests on susceptible, female, IN/WHO strain house flies and from tests on resistant, female, Rutgers A strain house flies. The synergist and insecticide were dissolved in ACS Grade acetone in such quantities that a 1.0 μ liter volume applied to the thorax of 3-to-5 day old CO2 -anesthetized female adult house flies contained the desired dosage. After being treated, the flies were confined, 10 to a plaster petri dish, with 3-5 dishes/treament, and held for 24-hr. observation of mortality. Reconstituted skim milk on cotton dental wicks was provided during the holding period. The percent kills after 24 hours are shown in Table X for the IN/WHO strain and Table XI for the Rutgers A strain.
(§3) The synergistic effect of benzyl 2-propynyl ethers with mobam was determined from topical application tests on IN/WHO and Rutgers A strain houseflies, following the procedure of Example 5. The percent kills after 24 hours are shown in Table XIV for the IN/WHO strain and in Table XV for the Rutgers A strain.
The effects of varying the insecticide dose and the synergist-insecticide ratio are further illustrated, with synergist compounds II-D, II-E, II-F and Mobam insecticide, in Tables XVI, XVII and XVIII. […]
The effect on IN/WHO flies of synergist compound IV-C, identified in Table IV, with mobam was determined by the topical application procedure of Example 5. […]
(§4) The synergistic effect with GS 13005 of compounds I-A, I-B, I-D, I-E, I-F, I-G and I-I was determined from topical application tests to IN/WHO strain, Rutgers A strain and polyvalent CH strain houseflies using the procedures of Example 5. The percent kills of the IN/WHO strain flies after 24 hours are shown in Table XXVIII; of the Rutgers A strain, in Table XXIX; and of the polyvalent CH strain, in Table XXX. The doses of insecticide alone to the CH strain files caused 10-40% mortality.
The synergistic effect with Diazinon and GS 13005 of various of the benzyl 2-propynyl ethers identified in Tables II and IIa was determined by topical application tests on IN/WHO strain, and Rutgers A strain and polyvalent, resistant, CH strain houseflies using the procedures of Example 5. The percent kills after 24 hours of IN/WHO strain flies are shown in Table XXXI; of Rutgers A strain flies, in Table XXXII; and of CH strain flies, in Table XXXIII. The doses of insecticide alone to the CH strain flies caused 10-40% mortality. […]
(§5) The synergistic effect on IN/WHO strain flies and Rutgers A strain flies of compound IV-C with GS 13005 and with Diazinon was determined by the topical application procedure of Example 5. The percent kills of IN/WHO strain flies after 24 hours are shown in Tables XXXVI and XXXVII; the percent kills of Rutgers A strain flies are shown in Tables XXXVIII and XXXIX.

[2] = tested on: Rutgers A strain house flies; assay: topical application, percent kill after 24 hours, resistant Rutgers A strain; assay type: in vivo, female); conditions: for percent kill after 24 hours, with GS 13005: GS 13005 1.0 + synergist 5.0 μg/fly
Protocol: as §1, §2, §3
The synergistic effect with Diazinon of compounds I-B, I-D, I-F, I-G, I-H and I-I, identified in Tables I and Ia, was determined from topical application tests on IN/WHO strain houseflies and on Rutgers A strain houseflies by the procedure of Example 5. The percent kills after 24 hours are shown in Table XXV for the IN/WHO strain and Table XXVI for the Rutgers A strain.
as §4
The synergistic effect with Diazinon and GS 13005 of various of the benzyl 2-propynyl ethers identified in Tables II and IIa was determined by topical application tests on IN/WHO strain, and Rutgers A strain and polyvalent, resistant, CH strain houseflies using the procedures of Example 5. The percent kills after 24 hours of IN/WHO strain flies are shown in Table XXXI; of Rutgers A strain flies, in Table XXXII; and of CH strain flies, in Table XXXIII. The doses of insecticide alone to the CH strain flies caused 10-40% mortality.
as §5

[3] = tested on: male mice; assay: extension of sleeping time of depressant drugs by synergists; assay type: in vivo, male mice (Swiss albino white); conditions: for Mean Sleeping Time, Noludar / Relative Sleeping Time, Noludar: Noludar 110 mg/kg; for Relative Sleeping Time, Noludar / Relative Sleeping Time, Secobarbital: treated/control; for Mean Sleeping Time, Secobarbital / Relative Sleeping Time, Secobarbital: Secobarbital 37 mg/kg
Protocol: The selectivity of the synergist compounds of this invention is illustrated by the results of sleeping-time extension tests and of acute toxicity tests on Swiss albino white male mice.
The effect of various synergist compounds on sleeping time of sodium secobarbital [Secobarbital] and of 3,3-diethyl-5-methyl-2,4-dioxypiperidine [Noludar] was determined by administering the drug, with and without synergist, to approximately 38-day old male mice weighing from 25 to 30 grams. Synergists were administered in each of two doses, 74.0 mg/kg (dilution being 2.0 mg/0.1 ml corn oil), and 110.0 mg/kg (dilution 3.0 mg/0.1 ml oil). Secobarbital was administered at a dose of 37.0 mg/kg (dilution 1.0 mg/0.1 ml water). Noludar was administered at a dose of 110.0 mg/kg (dilution 3.0 mg/0.1 ml water). The synergist was administered one hour prior to administration of the Secobarbital or Noludar. Secobarbital and Noludar sleeping times were obtained for both the control (drug only) and the treated (synergist plus drug) mice by noting the time lapse between the administration of the drug and the recovery of the righting reflex, i.e. when the animal regains conciousness and can walk up an inclined wooden tray with coordination. The relative sleeping time (R.S.) was noted. The R.S. is the extended sleeping time in the treated mice (synergist plus drug) divided by the sleeping time in the control mice (drug only). The mean sleeping time for the treated mice and the R.S. are shown on Table XXXXIV for various synergist compounds.

[4] = tested on: Swiss albino, white male mice; assay: acute toxicity and synergism of acute toxicity in mice; assay type: in vivo; conditions: for number of mice dead, with Dimetilan: 48 hours; for number of mice dead, with GS 13005: GS 13005 71 + synergist 213 mg/kg; for number of mice dead, with Methadone: Methadone 32 + synergist 215 mg/kg; for number of mice dead, with Secobarbital: Secobarbital 90 + synergist 215 mg/kg
Protocol: To determine the acute toxicity of dimetilan alone, eight dosage levels of Dimetilan, ranging from 4 to 32 mg per kg were applied to eight, Swiss, albino, white, male mice per dosage level. The mice weighed approximately 23 to 27 grams and were five to six weeks old. The Dimetilan was administered intraperitoneally in 0.1 ml of corn oil one hour after the administration of the same dose of corn oil alone.
To determine the acute toxicity of the synergist alone, various synergists were administered intraperitoneally at a dose of 1000 mg/kg to each of a group of eight mice. The number of animals dead at the end of 72 hours is reported in the left hand column of Table XXXXVI.
The synergism of the acute toxicity of Dimetilan by various synergists was determined by tests on Swiss albino, white male mice aged five to six weeks and weighing 23 to 27 grams. The synergists and insecticides were dissolved in corn oil and the drugs were dissolved in distilled water. All compounds were administered intraperitoneally by injection in the lower quadrent of the abdomen. The synergist was administered in 0.1 ml of corn oil one hour prior to administration of the insecticide. Eight mice were treated, per dosage, with each synergist. The mice were watched for a minimum of 6 hours while held in a glass jar with bedding individually after intraperitoneal injection of the test solutions. Lethality was noted, the animals were weighed and transferred in cages, and food and water were supplied. Control mice were given 0.1 ml of corn oil at the time of administration of the synergist to the test mice and 0.1 ml corn oil plus Dimetilan at the time of administration of the insecticide to the test mice.
By the same procedure, the synergism of acute toxicity of GS 13005, Secobarbital and 6-dimethylamino-4,4-diphenyl-3-heptanone [Methadone] was determined.

[5] = insecticide 0, synergist 5.0 μg/fly
[6] = synergist 110 mg/kg one hour prior
[7] = Dimetilan 8 + synergist 80 mg/kg i.p., eight mice
[8] = Dimetilan 8 + synergist 240 mg/kg i.p., eight mice

C#CCOCc1ccc(Cl)cc1[N+](=O)[O-] [II-J]
percent kill after 24 hours, synergist alone (GS 13005 part of Table XXXI) [1]: 13% | percent kill after 24 hours, with GS 13005 [1]: 99% | percent kill after 24 hours, with Mobam [1]: 100% | percent kill after 24 hours, synergist alone [1]: 13% | percent kill after 24 hours, with GS 13005 [2]: 100% | percent kill after 24 hours, with Mobam ([2]; Mobam 0.40 + synergist 2.0 μg/fly): 70% | percent kill after 24 hours, synergist alone [2, 5]: 0% | Mean Sleeping Time, Noludar [3, 6]: 70 min | Relative Sleeping Time, Noludar ([3]; synergist 110 mg/kg): 2.2 | Mean Sleeping Time, Secobarbital ([3]; synergist 74 mg/kg one hour prior): 27 min | Relative Sleeping Time, Secobarbital ([3]; synergist 74 mg/kg): 1.0 | Mean Sleeping Time, Secobarbital [3, 6]: 30 min | Relative Sleeping Time, Secobarbital ([3]; synergist 110 mg/kg): 1.4 | number of mice dead, with Dimetilan [4, 7]: 0 | number of mice dead, with Dimetilan [4, 8]: 4 | number of mice dead, with GS 13005 [4]: 6 | number of mice dead, with Methadone [4]: 3 | number of mice dead, with Secobarbital [4]: 0

C#CCOCc1ccc([N+](=O)[O-])c(Cl)c1 [II-O]
percent kill after 24 hours, synergist alone (GS 13005 part of Table XXXI) [1]: 10% | percent kill after 24 hours, with GS 13005 [1]: 90% | percent kill after 24 hours, with Mobam [1]: 60% | percent kill after 24 hours, synergist alone [1]: 10% | percent kill after 24 hours, with GS 13005 [2]: 47% | percent kill after 24 hours, synergist alone [2, 5]: 3% | Mean Sleeping Time, Noludar [3, 6]: 52 min | Relative Sleeping Time, Noludar ([3]; synergist 110 mg/kg): 2.4 | Mean Sleeping Time, Secobarbital [3, 6]: 26 min | Relative Sleeping Time, Secobarbital ([3]; synergist 110 mg/kg): 1.1 | number of mice dead, with Dimetilan [4, 7]: 0 | number of mice dead, with Dimetilan [4, 8]: 2

CCC(=O)C(CC(C)N(C)C)(c1ccccc1)c1ccccc1 (centres unmarked) [Methadone, 6-dimethylamino-4,4-diphenyl-3-heptanone, reference compound]
number of mice dead, control (Methadone alone) ([4]; Methadone (32 mg/kg) in 0.1 ml corn oil): 2

COP(=O)(OC)O/C(C)=C/C(=O)N(C)C [Bidrin, 3-hydroxy-N,N-dimethyl-cis-crotonamide, dimethyl phosphate, reference compound]
24 hour percent mortality, Bidrin alone ([1]; Bidrin 0.063 μg/fly): 0% | 24 hour percent mortality, Bidrin alone ([1]; Bidrin 0.13 μg/fly): 0%

COP(=O)(OC)OC(=CCl)c1cc(Cl)c(Cl)cc1Cl [Gardona, 2-chloro-1-(2,4,5-trichlorophenyl) vinyl dimethyl phosphate, reference compound]
24 hour percent mortality, Gardona alone ([1]; Gardona 0.031 μg/fly): 13% | 24 hour percent mortality, Gardona alone ([1]; Gardona 0.063 μg/fly): 73% | 24 hour percent mortality, Gardona alone ([1]; Gardona 0.125 μg/fly): 100%

C#CCON=Cc1ccc(Cl)cc1 [I-H]
percent kill after 24 hours, with Diazinon ([1]; Diazinon 0.02 + synergist 0.10 μg/fly): 47% | percent kill after 24 hours, synergist alone [1]: 0% | percent kill after 24 hours, with Diazinon ([2]; Diazinon 1.5 + synergist 7.5 μg/fly): 80% | percent kill after 24 hours, with Diazinon ([2]; Diazinon 3.0 + synergist 15 μg/fly): 100% | percent kill after 24 hours, synergist alone ([2]; insecticide 0, synergist 7.5 μg/fly): 0% | percent kill after 24 hours, synergist alone ([2]; insecticide 0, synergist 15 μg/fly): 0%

CCOCCOCCOC(C)Oc1ccc2c(c1)OCO2 (centres unmarked) [Sesoxane, reference compound]
Relative Sleeping Time, Noludar ([3]; synergist 110 mg/kg): 3.1 | Relative Sleeping Time, Secobarbital ([3]; synergist 74 mg/kg): 6.1 | Relative Sleeping Time, Secobarbital ([3]; synergist 110 mg/kg): 8.3 | number of mice dead, with Dimetilan [4, 7]: 8 | number of mice dead, with Dimetilan [4, 8]: 8 | number of mice dead, with GS 13005 [4]: 0 | number of mice dead, with Methadone [4]: 5 | number of mice dead, with Secobarbital [4]: 6 | number of mice dead, synergist alone ([4]; synergist 1000 mg/kg i.p., Dimetilan 0, 72 hours, eight mice): 1

C=CCC1(C(C)CCC)C(=O)NC(=O)NC1=O (centres unmarked) [Secobarbital, sodium secobarbital, reference compound]
number of mice dead, control (Secobarbital alone) ([4]; Secobarbital (90 mg/kg) in 0.1 ml corn oil): 0

CNC(=O)Oc1ccccc1OC(C)C [Baygon, o-isopropoxyphenyl methylcarbamate, reference compound]
24 hour percent mortality, insecticide alone ([1]; insecticide 0.125 μg/fly (Table XXI)): 0%
